Row | SMILES | melting point
1 | CN1C(=O)N(c2cc(Cl)cc(Cl)c2)C(=O)[C@]12CN(CN1C[C@H](c3ccc(C#N)cc3)[C@@]3(C1)C(=O)N(c1cc(Cl)cc(Cl)c1)C(=O)N3C)C[C@H]2c1ccc(C#N)cc1 (hydrate or solvate) [Example 6a, Meso Aminal Dimer of 4-[3-(3,5-Dichlorophenyl)-1-methyl-2,4-dioxo-1,3,7-triazaspiro[4.4]non-9-yl]-benzonitrile] | 79 to 109 °C
2 | COC(=O)c1csc(CN2C[C@@H](c3ccc(C#N)cc3)[C@]3(C2)C(=O)N(c2cc(Cl)cc(Cl)c2)C(=O)N3C)c1.Cl (stereo in doubt) | 204 to 207 °C
3 | CN1C(=O)N(c2cc(Cl)cc(Cl)c2)C(=O)[C@]12CN(CN1C[C@@H](c3ccc(C#N)cc3)[C@]3(C1)C(=O)N(c1cc(Cl)cc(Cl)c1)C(=O)N3C)C[C@H]2c1ccc(C#N)cc1 (racemic) (hydrate or solvate) [Example 6b, Racemic Aminal Dimer of 4-[3-(3,5-Dichlorophenyl)-1-methyl-2,4-dioxo-1,3,7-triazaspiro[4.4]non-9-yl]-benzonitrile] | 31 to 47 °C

Source: patent US7381737B2, “Crystalline forms and process for preparing spiro-hydantoin compounds” (Bristol-Myers Squibb Company, priority 2004, dated 2008)
